Like-named read-outs stand apart in the source and are kept apart here.
Tests used:
KRas = KRas (Homo sapiens (Human), UniProt P01116); experiment: KRas GDP HTRF (BODIPY-GDP exchange TR-FRET); assay type: biochemical
Method in brief: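 Inhibition of SOS1-mediated exchange of BODIPY-GDP on KRAS G12D, started with 3 nM recombinant human SOS1 and 300 nM BODIPY-GDP and read after 60 min. TR-FRET excitation 337 nm, ratio 520/490 nm ×10,000. IC50 from 4-parameter Hill fit of normalized data.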

SW480 cells = experiment: SW480 proliferation assay; assay type: cell-based; details: read-out: SW480 Prolif IC50 (G12V)
KRas(G12V) = KRas(G12V) (Homo sapiens (Human), UniProt P01116, G12V); experiment: KRas(G12V) GDP HTRF (BODIPY-GDP exchange TR-FRET); assay type: biochemical
PC-9 cells = experiment: PC9 proliferation assay; assay type: cell-based, human; details: read-out: PC9 Prolif IC50 (G12V)

Chain of KRas(G12V) (P01116-2 other isoform, or with tags, fused parts or gaps G12V): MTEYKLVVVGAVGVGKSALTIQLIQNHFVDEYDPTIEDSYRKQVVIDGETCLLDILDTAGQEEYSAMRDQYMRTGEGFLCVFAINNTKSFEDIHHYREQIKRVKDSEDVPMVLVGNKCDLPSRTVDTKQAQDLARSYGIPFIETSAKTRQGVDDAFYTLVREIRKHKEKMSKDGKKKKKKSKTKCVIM
Chain of KRas (P01116-2 other isoform, or with tags, fused parts or gaps): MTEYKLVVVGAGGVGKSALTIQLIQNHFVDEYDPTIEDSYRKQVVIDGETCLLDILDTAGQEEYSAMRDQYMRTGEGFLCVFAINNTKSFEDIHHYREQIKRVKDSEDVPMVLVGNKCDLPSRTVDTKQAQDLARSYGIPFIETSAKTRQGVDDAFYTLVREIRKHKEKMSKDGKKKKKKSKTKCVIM

SMILES	IC50 (KRas)	IC50 (SW480 cells; SW480)	IC50 (KRas(G12V))	IC50 (PC-9 cells; PC9)	IC50 (SW480 cells; Homo sapiens, SW480, SW480)	IC50 (PC-9 cells; Homo sapiens, PC-9, PC9)
Cc1cc(N)nc(-c2c(Cl)c3c4c(nc(OC[C@@]56CCCN5C[C@H](F)C6)nc4c2F)N([C@H](C)c2cccnc2N)CCO3)c1C(F)(F)F (atropisomer, axis not shown; (aS)) [Example 48, 6-(4-((R)-1-(2-aminopyridin-3-yl)ethyl)-8-chloro-10-fluoro-2-(((2R,7aS)-2-fluoro-hexahydro-1H-pyrrolizin-7a-yl)methoxy)-5,6-dihydro-4H-[1,4]oxazepino[5,6,7-de]quinazolin-9-yl)-4-methyl-5-(trifluoromethyl)pyridin-2-amine]	0.091 nM	1.4 nM	0.04 nM	1500 nM	–	–
Cc1cc(N)nc(-c2c(Cl)c3c4c(nc(OC[C@@]56CCCN5C[C@H](F)C6)nc4c2F)N([C@H](C)c2cccnc2N)CCO3)c1C(F)(F)F (atropisomer, axis not shown; (aS)) [Example 107, (S)-6-(4-((R)-1-(2-aminopyridin-3-yl)ethyl)-8-chloro-10-fluoro-2-(((2R,7aS)-2-fluorotetrahydro-1H-pyrrolizin-7a(5H)-yl)methoxy)-5,6-dihydro-4H-[1,4]oxazepino[5,6,7-de]quinazolin-9-yl)-4-methyl-5-(trifluoromethyl)pyridin-2-amine]	240 nM	560 nM	90 nM	4000 nM	–	–
Cc1cc(N)nc(-c2c(Cl)c3c4c(nc(OC[C@H]5C[C@H](O)C5)nc4c2F)N([C@H](C)c2cccnc2N)CCO3)c1C(F)(F)F (atropisomer, axis not shown) [Example 145, (1R,3r)-3-((((R)-9-(6-amino-4-methyl-3-(trifluoromethyl)pyridin-2-yl)-4-((R)-1-(2-aminopyridin-3-yl)ethyl)-8-chloro-10-fluoro-5,6-dihydro-4H-[1,4]oxazepino[5,6,7-de]quinazolin-2-yl)oxy)methyl)cyclobutan-1-ol]	1.2 nM	–	0.56 nM	–	450 nM	20000 nM
Cc1cc(N)nc(-c2cc3ncnc4c3c(c2Cl)OC[C@H](CC#N)N4Cc2cccnc2N)c1C(F)(F)F [Example 19, (S)-2-(9-(6-amino-4-methyl-3-(trifluoromethyl)pyridin-2-yl)-4-((2-aminopyridin-3-yl)methyl)-8-chloro-5,6-dihydro-4H-[1,4]oxazepino[5,6,7-de]quinazolin-5-yl)acetonitrile]	200000 nM	–	15000 nM	–	5700 nM	4500 nM
Cc1cc(N)nc(-c2c(Cl)c3c4c(nc(OCC56COC(C5)C6)nc4c2F)N([C@H](C)c2cccnc2N)CCO3)c1C(F)(F)F [Example 141, 6-((R)-2-((2-oxabicyclo[2.1.1]hexan-4-yl)methoxy)-4-((R)-1-(2-aminopyridin-3-yl)ethyl)-8-chloro-10-fluoro-5,6-dihydro-4H-[1,4]oxazepino[5,6,7-de]quinazolin-9-yl)-4-methyl-5-(trifluoromethyl)pyridin-2-amine]	0.77 nM	–	0.24 nM	–	76 nM	8100 nM
Cc1cc(N)nc(-c2c(Cl)c3c4c(nc(OC[C@@H]5CCCN5CC(F)F)nc4c2F)N([C@H](C)c2cccnc2N)CCO3)c1C(F)(F)F (atropisomer, axis not shown) [Example 115, 6-((R)-4-((R)-1-(2-aminopyridin-3-yl)ethyl)-8-chloro-2-(((S)-1-(2,2-difluoroethyl)pyrrolidin-2-yl)methoxy)-10-fluoro-5,6-dihydro-4H-[1,4]oxazepino[5,6,7-de]quinazolin-9-yl)-4-methyl-5-(trifluoromethyl)pyridin-2-amine]	0.9 nM	–	0.47 nM	–	16 nM	15000 nM
Cc1cc(N)nc(-c2c(Cl)c3c4c(nc(OC[C@@H]5CCCN5C5COC5)nc4c2F)N([C@H](C)c2cccnc2N)CCO3)c1C(F)(F)F (atropisomer, axis not shown) [Example 117, 6-((R)-4-((R)-1-(2-aminopyridin-3-yl)ethyl)-8-chloro-10-fluoro-2-(((S)-1-(oxetan-3-yl)pyrrolidin-2-yl)methoxy)-5,6-dihydro-4H-[1,4]oxazepino[5,6,7-de]quinazolin-9-yl)-4-methyl-5-(trifluoromethyl)pyridin-2-amine]	0.18 nM	–	0.08 nM	–	12 nM	6300 nM
Cc1cc(N)nc(-c2cc3nc(OC[C@@]45CCCN4C[C@H](F)C5)nc4c3c(c2Cl)OCCN4Cc2cn[nH]c2)c1C(F)(F)F [Example 2, 6-(4-((1H-pyrazol-4-yl)methyl)-8-chloro-2-(((2R,7aS)-2-fluorotetrahydro-1H-pyrrolizin-7a(5H)-yl)methoxy)-5,6-dihydro-4H-[1,4]oxazepino[5,6,7-de]quinazolin-9-yl)-4-methyl-5-(trifluoromethyl)pyridin-2-amine]	25 nM	–	11 nM	–	11000 nM	7700 nM
Cc1cc(N)nc(-c2c(Cl)c3c4c(nc(OCCN5CCN(C)CC5)nc4c2F)N([C@H](C)c2cccnc2N)CCO3)c1C(F)(F)F (atropisomer, axis not shown) [Example 135, 6-((R)-4-((R)-1-(2-aminopyridin-3-yl)ethyl)-8-chloro-10-fluoro-2-(2-(4-methylpiperazin-1-yl)ethoxy)-5,6-dihydro-4H-[1,4]oxazepino[5,6,7-de]quinazolin-9-yl)-4-methyl-5-(trifluoromethyl)pyridin-2-amine]	0.37 nM	–	0.08 nM	–	390 nM	1500 nM
Cc1cc(N)nc(-c2c(Cl)c3c4c(nc(OCC5CCOCC5)nc4c2F)N([C@H](C)c2cccnc2N)CCO3)c1C(F)(F)F (atropisomer, axis not shown) [Example 152, 6-((R)-4-((R)-1-(2-aminopyridin-3-yl)ethyl)-8-chloro-10-fluoro-2-((tetrahydro-2H-pyran-4-yl)methoxy)-5,6-dihydro-4H-[1,4]oxazepino[5,6,7-de]quinazolin-9-yl)-4-methyl-5-(trifluoromethyl)pyridin-2-amine]	2.3 nM	–	0.75 nM	–	180 nM	5600 nM
Cc1cc(N)nc(-c2c(Cl)c3c4c(nc(OC[C@@H]5CC[C@H]6COCCN65)nc4c2F)N([C@H](C)c2cccnc2N)CCO3)c1C(F)(F)F (atropisomer, axis not shown; (aS)) [Example 87a, 6-((R)-4-((R)-1-(2-aminopyridin-3-yl)ethyl)-8-chloro-10-fluoro-2-(((6S,8aS)-hexahydro-1H-pyrrolo[2,1-c][1,4]oxazin-6-yl)methoxy)-5,6-dihydro-4H-[1,4]oxazepino[5,6,7-de]quinazolin-9-yl)-4-methyl-5-(trifluoromethyl)pyridin-2-amine]	0.106 nM	–	0.087 nM	–	2.5 nM	6300 nM
Nc1ncccc1CN1CCOc2c(Cl)c(-c3cc(O)cc4ccccc34)cc3nc(OC[C@@]45CCCN4C[C@H](F)C5)nc1c23 [Example 61, 4-(4-((2-aminopyridin-3-yl)methyl)-8-chloro-2-(((2R,7aS)-2-fluorotetrahydro-1H-pyrrolizin-7a(5H)-yl)methoxy)-5,6-dihydro-4H-[1,4]oxazepino[5,6,7-de]quinazolin-9-yl)naphthalen-2-ol]	4.3 nM	–	0.86 nM	–	940 nM	3100 nM
Cc1cc(N)nc(-c2c(Cl)c3c4c(nc(OCC5CCN(S(C)(=O)=O)CC5)nc4c2F)N([C@H](C)c2cccnc2N)CCO3)c1C(F)(F)F (atropisomer, axis not shown) [Example 148, 6-((R)-4-((R)-1-(2-aminopyridin-3-yl)ethyl)-8-chloro-10-fluoro-2-((1-(methylsulfonyl)piperidin-4-yl)methoxy)-5,6-dihydro-4H-[1,4]oxazepino[5,6,7-de]quinazolin-9-yl)-4-methyl-5-(trifluoromethyl)pyridin-2-amine]	3.6 nM	–	1.1 nM	–	410 nM	9600 nM
Cc1cc(N)cc(-c2cc3nc(OC[C@@]45CCCN4C[C@H](F)C5)nc4c3c(c2Cl)OCCN4C)c1C(F)(F)F [Example 39, 3-(8-chloro-2-(((2R,7aS)-2-fluorotetrahydro-1H-pyrrolizin-7a(5H)-yl)methoxy)-4-methyl-5,6-dihydro-4H-[1, 4]oxazepino[5,6,7-de]quinazolin-9-yl)-5-methyl-4-(trifluoromethyl)aniline]	140 nM	–	24 nM	–	20000 nM	20000 nM
Cc1cc(N)nc(-c2c(Cl)c3c4c(nc(OC[C@]56CCN5CC(F)(F)C6)nc4c2F)N([C@H](C)c2cncnc2N)CCO3)c1C(F)(F)F (atropisomer, axis not shown) [Example 82b, 5-((R)-1-((R)-9-(6-amino-4-methyl-3-(trifluoromethyl)pyridin-2-yl)-8-chloro-2-(((R)-3,3-difluoro-1-azabicyclo[3.2.0]heptan-5-yl)methoxy)-10-fluoro-5,6-dihydro-4H-[1,4]oxazepino[5,6,7-de]quinazolin-4-yl)ethyl)pyrimidin-4-amine]	0.224 nM	–	0.12 nM	–	11 nM	7200 nM
Cc1cc(N)nc(-c2cc3ncnc4c3c(c2Cl)OCCN4[C@H](C)c2cncc(N)c2)c1C(F)(F)F [Example 17, (R)-6-(4-(1-(5-aminopyridin-3-yl)ethyl)-8-chloro-5,6-dihydro-4H-[1,4]oxazepino[5,6,7-de]quinazolin-9-yl)-4-methyl-5-(trifluoromethyl)pyridin-2-amine]	52 nM	–	6.1 nM	–	8700 nM	17000 nM
